System: histamine induced gastric acid secretion
Assay: inhibition of histamine induced gastric acid secretion in the perfused rat stomach preparation
Type: in vivo
Details: sodium pentobarbitone anaesthesia
From the text: Certain novel heterocyclic derivatives having a structure different from the compounds referred to above, have now been found which have potent activity as H2-antagonists.
The results obtained for a representative number of compounds according to the invention are given below: […]

Compound | ED50
Cn1nc(N)nc1NCCCOc1cccc(CNCc2ccco2)c1 [1 (b), 1-methyl-N^5-[3-[3-[(2-furanylmethyl)aminomethyl]phenoxy]propyl)-1H-1,2,4-triazole-3,5-diamine] | 0.095 mg/kg
CCCCCCCCCCCCNCc1cccc(OCCCNc2nc(N)nn2C)c1 [1 (d), 1-methyl-N^5-[3-[3-[(dodecylamino)methyl]phenoxy]-propyl]-1H-1,2 4-triazoie-3,5-diamine] | 0.075 mg/kg
CCCCNC(=O)CCCCCNCc1cccc(OCCCNc2nc(N)nn2C)c1 [1 (g)] | 0.25 mg/kg
Cn1nc(N)nc1NCCCOc1cccc(CNCc2ccc[nH]2)c1 [2 (d), 1-methyl-N5-[3-[3-[(1H-pyrrol-2-yl-methyl)amino-methyl]phenoxy]propyl]-1H-1,2,4-triazole-3,5-diamine] | 0.014 mg/kg
Cn1nc(N)nc1NCCCOc1cccc(CNCc2ccc(CO)o2)c1 [Example 2 (a), 5-[[3-[3-[(3-Amino-1-methyl-1,2,4-triazol-5-yl)-amino]propoxy]phenylmethyl]aminomethyl]furan-2-methanol] | 0.19 mg/kg
Cn1nc(N=Cc2ccncc2)nc1NCCCOc1cccc(CNCc2ccco2)c1 [Example 5, 1-Methyl-N3-(4-pyridylmethylene)-N^5-[3-[3-[(2-furanylmethyt)-aminomethyl)phenoxy]propyl]-1 H-1,2,4-triazole-3,5-diamine] | 0.18 mg/kg
CN(Cc1ccco1)Cc1ccc(CSCCNc2nc(CO)nn2C)o1 [Example 6, 5-[[2-[[[5-[[N-Methyl(2-furanylmethyl)amino]methyl]-2-furanyl]methyl]thio]ethyl]amino]-1-methyl-1 H-1,2,4-triazole-3-methanol] | 0.077 mg/kg
